Source: publication PMC4385830, “Group I Paks as therapeutic targets in NF2-deficient meningioma” (Oncotarget, 2015)

Columns and labels:
Experiment in all cases: Kinase selectivity, Z'-LYTE
Assay type in all cases: biochemical
[1] = molecular target: T1, AXL (Homo sapiens, UniProt P30530)
T1 construct: purchased Invitrogen (Life Technologies) SelectScreen Z'-LYTE
T1 sequence (P30530 26-894): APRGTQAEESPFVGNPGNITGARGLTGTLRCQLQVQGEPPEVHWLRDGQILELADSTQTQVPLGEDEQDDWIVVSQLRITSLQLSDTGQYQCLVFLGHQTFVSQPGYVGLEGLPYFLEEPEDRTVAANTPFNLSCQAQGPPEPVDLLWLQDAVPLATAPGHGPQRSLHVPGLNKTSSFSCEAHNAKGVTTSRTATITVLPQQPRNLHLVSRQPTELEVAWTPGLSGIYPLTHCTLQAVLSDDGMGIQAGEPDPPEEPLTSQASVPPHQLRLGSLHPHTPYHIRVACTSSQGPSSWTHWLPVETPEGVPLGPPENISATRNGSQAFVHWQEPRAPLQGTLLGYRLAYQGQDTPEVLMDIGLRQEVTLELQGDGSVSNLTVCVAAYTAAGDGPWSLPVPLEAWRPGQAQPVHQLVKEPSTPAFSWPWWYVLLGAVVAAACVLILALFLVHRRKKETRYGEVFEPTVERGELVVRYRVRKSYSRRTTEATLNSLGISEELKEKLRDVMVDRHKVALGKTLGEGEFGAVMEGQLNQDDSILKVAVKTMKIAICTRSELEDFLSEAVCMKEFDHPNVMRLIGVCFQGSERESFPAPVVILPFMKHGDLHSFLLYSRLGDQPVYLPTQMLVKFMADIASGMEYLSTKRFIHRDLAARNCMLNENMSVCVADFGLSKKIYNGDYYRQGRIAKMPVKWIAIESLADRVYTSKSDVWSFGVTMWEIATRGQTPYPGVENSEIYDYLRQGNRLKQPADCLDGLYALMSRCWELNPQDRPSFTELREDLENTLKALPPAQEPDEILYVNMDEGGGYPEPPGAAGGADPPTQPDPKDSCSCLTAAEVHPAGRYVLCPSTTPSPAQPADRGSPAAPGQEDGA
In short: (§1)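 Recombinant kinase, per-kinase optimized mix; FRET peptide read-out after protease development (phospho-peptide resists cleavage).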

[2] = molecular target: T2, SPHK1 (Homo sapiens, UniProt Q9NYA1)
T2 construct: purchased Invitrogen (Life Technologies) SelectScreen Z'-LYTE
T2 sequence (Q9NYA1 whole entry): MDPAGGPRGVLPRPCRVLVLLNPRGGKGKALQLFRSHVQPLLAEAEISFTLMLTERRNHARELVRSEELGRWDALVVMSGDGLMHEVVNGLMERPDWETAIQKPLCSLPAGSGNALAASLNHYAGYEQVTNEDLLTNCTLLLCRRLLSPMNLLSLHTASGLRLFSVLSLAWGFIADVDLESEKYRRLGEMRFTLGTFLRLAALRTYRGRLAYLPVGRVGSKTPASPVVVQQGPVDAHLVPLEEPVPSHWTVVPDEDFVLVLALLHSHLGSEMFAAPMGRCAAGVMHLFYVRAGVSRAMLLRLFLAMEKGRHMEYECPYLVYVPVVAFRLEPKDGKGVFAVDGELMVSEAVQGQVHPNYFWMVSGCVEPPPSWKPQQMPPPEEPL
In short: as §1

[3] = molecular target: T3, CHEK1 (CHK1) (Homo sapiens, UniProt O14757)
T3 construct: purchased Invitrogen (Life Technologies) SelectScreen Z'-LYTE
T3 sequence (O14757 1-476): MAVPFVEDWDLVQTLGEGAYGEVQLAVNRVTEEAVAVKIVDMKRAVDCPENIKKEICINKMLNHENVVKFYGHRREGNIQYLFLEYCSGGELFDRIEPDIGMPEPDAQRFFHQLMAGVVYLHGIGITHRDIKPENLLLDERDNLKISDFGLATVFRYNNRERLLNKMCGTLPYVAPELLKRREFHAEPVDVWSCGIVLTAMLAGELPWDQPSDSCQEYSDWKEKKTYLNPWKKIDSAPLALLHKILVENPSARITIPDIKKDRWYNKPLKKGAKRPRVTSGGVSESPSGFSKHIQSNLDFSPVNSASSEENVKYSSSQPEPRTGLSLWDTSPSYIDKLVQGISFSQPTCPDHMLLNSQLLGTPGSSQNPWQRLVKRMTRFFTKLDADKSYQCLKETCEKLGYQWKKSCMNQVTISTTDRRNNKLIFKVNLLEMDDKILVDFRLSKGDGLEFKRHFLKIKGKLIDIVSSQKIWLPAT
In short: as §1

[4] = molecular target: T4, Pak4 (Homo sapiens, UniProt O96013)
T4 construct: purchased Invitrogen (Life Technologies) SelectScreen Z'-LYTE
T4 sequence (O96013 whole entry): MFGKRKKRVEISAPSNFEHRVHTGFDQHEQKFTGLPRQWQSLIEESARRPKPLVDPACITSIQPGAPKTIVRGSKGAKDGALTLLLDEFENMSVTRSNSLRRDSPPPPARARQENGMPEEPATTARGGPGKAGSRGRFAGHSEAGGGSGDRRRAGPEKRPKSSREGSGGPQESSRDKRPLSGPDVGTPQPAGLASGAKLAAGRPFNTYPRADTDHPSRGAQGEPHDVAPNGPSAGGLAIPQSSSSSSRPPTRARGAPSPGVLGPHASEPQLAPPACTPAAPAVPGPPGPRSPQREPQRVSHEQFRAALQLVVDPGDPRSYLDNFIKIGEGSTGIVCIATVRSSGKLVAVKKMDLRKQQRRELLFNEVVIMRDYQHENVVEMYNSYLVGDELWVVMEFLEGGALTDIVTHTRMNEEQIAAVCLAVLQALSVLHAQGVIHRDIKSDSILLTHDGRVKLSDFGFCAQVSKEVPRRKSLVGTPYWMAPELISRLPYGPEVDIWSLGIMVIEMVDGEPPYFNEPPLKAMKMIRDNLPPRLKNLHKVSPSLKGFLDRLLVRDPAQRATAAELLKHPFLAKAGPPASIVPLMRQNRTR
In short: as §1

[5] = molecular target: T5, FRAP1 (mTOR) (Homo sapiens, UniProt P42345)
T5 construct: purchased Invitrogen (Life Technologies) SelectScreen Z'-LYTE
In short: as §1

[6] = molecular target: T6, TEK (Tie2) (Homo sapiens, UniProt Q02763)
T6 construct: purchased Invitrogen (Life Technologies) SelectScreen Z'-LYTE
In short: as §1

[7] = molecular target: T7, PTK1 (FAK) (Homo sapiens, UniProt Q05397)
T7 construct: purchased Invitrogen (Life Technologies) SelectScreen Z'-LYTE
In short: as §1

[8] = molecular target: T8, JAK2 (Homo sapiens, UniProt O60674)
T8 construct: purchased Invitrogen (Life Technologies) SelectScreen Z'-LYTE
In short: as §1

[9] = molecular target: T9, YES1 (Homo sapiens, UniProt P07947)
T9 construct: purchased Invitrogen (Life Technologies) SelectScreen Z'-LYTE
In short: as §1

[10] = molecular target: T10, ERBB2 (HER2) (Homo sapiens, UniProt P04626)
T10 construct: purchased Invitrogen (Life Technologies) SelectScreen Z'-LYTE
T10 sequence (P04626 23-1255): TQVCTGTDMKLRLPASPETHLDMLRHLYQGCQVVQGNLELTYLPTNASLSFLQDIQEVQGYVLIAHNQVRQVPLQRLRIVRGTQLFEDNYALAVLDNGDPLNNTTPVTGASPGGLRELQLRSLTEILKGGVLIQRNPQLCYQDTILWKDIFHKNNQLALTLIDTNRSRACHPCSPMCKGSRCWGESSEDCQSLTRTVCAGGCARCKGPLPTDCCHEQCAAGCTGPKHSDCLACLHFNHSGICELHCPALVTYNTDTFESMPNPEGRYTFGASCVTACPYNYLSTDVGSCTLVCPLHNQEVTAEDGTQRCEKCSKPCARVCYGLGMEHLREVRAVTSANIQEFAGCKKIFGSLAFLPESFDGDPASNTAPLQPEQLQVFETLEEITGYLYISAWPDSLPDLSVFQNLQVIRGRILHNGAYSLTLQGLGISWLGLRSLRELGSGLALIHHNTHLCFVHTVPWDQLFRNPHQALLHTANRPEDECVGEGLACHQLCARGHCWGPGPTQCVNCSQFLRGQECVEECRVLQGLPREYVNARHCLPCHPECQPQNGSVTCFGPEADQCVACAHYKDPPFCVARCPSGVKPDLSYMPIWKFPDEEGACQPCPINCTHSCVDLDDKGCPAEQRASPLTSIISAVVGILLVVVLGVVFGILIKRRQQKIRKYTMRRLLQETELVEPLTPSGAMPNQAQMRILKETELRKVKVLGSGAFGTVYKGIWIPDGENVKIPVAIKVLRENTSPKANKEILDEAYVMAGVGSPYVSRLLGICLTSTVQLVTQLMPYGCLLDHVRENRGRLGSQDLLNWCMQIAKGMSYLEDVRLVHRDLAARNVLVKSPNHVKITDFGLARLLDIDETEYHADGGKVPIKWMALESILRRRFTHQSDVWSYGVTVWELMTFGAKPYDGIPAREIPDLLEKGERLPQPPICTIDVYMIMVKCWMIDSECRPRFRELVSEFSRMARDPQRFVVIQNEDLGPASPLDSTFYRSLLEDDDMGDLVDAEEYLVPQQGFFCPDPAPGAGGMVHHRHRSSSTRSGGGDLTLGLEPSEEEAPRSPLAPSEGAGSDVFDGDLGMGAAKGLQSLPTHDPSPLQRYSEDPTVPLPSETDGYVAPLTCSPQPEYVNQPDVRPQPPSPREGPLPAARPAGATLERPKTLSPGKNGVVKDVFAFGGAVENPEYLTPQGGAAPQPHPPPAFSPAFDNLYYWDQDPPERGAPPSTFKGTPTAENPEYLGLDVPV
In short: as §1

[11] = molecular target: T11, MAPK11 (p38 beta) (Homo sapiens, UniProt Q15759)
T11 construct: purchased Invitrogen (Life Technologies) SelectScreen Z'-LYTE
T11 sequence (Q15759 whole entry): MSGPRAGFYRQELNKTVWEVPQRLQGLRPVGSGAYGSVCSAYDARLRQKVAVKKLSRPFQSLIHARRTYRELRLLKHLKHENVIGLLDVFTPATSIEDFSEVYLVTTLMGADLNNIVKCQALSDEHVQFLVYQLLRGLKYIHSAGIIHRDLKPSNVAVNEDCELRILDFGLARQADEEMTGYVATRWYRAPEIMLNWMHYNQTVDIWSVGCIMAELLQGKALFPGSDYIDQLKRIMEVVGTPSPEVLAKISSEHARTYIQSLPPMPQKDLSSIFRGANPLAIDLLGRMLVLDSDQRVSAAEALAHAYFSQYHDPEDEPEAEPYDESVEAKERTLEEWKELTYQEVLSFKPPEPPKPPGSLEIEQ
In short: as §1

[12] = molecular target: T12, MAPK3 (ERK1) (Homo sapiens, UniProt P27361)
T12 construct: purchased Invitrogen (Life Technologies) SelectScreen Z'-LYTE
T12 sequence (P27361 whole entry): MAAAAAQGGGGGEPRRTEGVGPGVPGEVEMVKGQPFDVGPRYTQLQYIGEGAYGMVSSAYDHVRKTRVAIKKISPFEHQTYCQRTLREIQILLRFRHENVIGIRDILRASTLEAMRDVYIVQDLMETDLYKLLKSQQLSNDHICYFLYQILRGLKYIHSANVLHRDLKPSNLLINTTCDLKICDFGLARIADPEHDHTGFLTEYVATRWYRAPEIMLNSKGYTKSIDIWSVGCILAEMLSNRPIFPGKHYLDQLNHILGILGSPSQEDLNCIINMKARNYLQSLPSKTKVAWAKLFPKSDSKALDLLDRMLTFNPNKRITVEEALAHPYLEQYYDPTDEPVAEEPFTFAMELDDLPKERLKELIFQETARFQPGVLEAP
In short: as §1

[13] = molecular target: T13, ACVR1B (ALK4) (Homo sapiens, UniProt P36896)
T13 construct: purchased Invitrogen (Life Technologies) SelectScreen Z'-LYTE
T13 sequence (P36896 24-505): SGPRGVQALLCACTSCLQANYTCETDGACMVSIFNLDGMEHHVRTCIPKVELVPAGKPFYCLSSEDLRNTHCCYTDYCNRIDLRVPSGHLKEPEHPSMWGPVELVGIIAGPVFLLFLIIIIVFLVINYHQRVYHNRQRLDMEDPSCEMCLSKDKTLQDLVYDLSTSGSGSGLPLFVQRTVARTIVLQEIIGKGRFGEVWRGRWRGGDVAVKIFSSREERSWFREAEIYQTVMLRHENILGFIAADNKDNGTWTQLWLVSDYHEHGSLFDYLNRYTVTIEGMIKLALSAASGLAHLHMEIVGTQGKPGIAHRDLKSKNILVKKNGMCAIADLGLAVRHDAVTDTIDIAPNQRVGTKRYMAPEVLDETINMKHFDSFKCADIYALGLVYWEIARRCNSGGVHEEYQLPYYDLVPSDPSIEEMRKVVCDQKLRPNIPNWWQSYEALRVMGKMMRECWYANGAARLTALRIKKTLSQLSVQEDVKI
In short: as §1

[14] = molecular target: T14, PIM1 (Homo sapiens, UniProt P11309)
T14 construct: purchased Invitrogen (Life Technologies) SelectScreen Z'-LYTE
T14 sequence (P11309 whole entry): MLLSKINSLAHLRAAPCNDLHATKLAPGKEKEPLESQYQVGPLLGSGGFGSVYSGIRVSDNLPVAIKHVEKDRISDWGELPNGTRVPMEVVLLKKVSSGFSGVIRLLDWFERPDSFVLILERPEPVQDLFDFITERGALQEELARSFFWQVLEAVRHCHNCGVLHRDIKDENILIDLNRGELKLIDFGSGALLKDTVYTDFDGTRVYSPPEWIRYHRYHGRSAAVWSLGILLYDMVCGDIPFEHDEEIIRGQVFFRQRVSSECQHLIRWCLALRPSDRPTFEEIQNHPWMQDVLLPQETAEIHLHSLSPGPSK
In short: as §1

[15] = molecular target: T15, CDK1/cyclin B (Homo sapiens, UniProt P06493)
T15 construct: purchased Invitrogen (Life Technologies) SelectScreen Z'-LYTE
T15 sequence (P06493 whole entry): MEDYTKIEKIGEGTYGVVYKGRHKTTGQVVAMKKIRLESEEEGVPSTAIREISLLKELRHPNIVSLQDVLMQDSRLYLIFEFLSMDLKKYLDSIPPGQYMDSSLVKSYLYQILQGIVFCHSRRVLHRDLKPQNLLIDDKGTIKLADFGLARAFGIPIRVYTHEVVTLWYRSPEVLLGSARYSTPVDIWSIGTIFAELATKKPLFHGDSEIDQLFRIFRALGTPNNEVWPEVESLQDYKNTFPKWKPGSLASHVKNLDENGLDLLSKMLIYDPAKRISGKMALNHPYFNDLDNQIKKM
T15 sequence (P14635 whole entry partner): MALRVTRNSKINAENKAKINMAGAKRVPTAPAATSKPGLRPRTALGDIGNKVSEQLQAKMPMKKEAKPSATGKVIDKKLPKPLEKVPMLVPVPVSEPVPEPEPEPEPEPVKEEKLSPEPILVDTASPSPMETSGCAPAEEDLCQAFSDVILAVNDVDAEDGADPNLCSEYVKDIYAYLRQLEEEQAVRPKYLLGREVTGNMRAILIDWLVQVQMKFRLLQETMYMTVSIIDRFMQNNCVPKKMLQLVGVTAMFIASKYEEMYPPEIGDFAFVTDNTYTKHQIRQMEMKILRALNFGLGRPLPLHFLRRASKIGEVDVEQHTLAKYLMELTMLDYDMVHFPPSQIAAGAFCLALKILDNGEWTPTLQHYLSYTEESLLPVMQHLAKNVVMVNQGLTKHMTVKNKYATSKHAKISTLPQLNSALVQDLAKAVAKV
In short: as §1

[16] = molecular target: T16, PDGFRA (PDGFR alpha) (Homo sapiens, UniProt P16234)
T16 construct: purchased Invitrogen (Life Technologies) SelectScreen Z'-LYTE
In short: as §1

[17] = molecular target: T17, CHEK2 (CHK2) (Homo sapiens, UniProt O96017)
T17 construct: purchased Invitrogen (Life Technologies) SelectScreen Z'-LYTE
T17 sequence (O96017 whole entry): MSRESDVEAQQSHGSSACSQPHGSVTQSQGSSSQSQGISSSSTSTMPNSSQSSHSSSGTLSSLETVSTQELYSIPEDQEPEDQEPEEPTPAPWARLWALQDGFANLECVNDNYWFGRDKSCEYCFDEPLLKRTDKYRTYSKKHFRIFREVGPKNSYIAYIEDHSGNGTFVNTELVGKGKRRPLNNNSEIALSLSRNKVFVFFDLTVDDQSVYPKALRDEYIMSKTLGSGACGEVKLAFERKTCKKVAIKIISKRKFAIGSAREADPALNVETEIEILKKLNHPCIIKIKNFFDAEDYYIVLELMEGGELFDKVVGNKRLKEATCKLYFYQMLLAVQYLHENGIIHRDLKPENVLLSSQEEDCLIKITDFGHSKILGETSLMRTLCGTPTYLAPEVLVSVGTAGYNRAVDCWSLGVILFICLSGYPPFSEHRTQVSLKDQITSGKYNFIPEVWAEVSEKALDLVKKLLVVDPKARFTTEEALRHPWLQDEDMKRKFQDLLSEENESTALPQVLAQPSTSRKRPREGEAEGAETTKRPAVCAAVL
In short: as §1

| % inhibition of activity [1] [%] | % inhibition of activity [2] [%] | % inhibition of activity [3] [%] | % inhibition of activity [4] [%] | % inhibition of activity [5] [%] | % inhibition of activity [6] [%] | % inhibition of activity [7] [%] | % inhibition of activity [8] [%] | % inhibition of activity [9] [%] | % inhibition of activity [10] [%] | % inhibition of activity [11] [%] | % inhibition of activity [12] [%] | % inhibition of activity [13] [%] | % inhibition of activity [14] [%] | % inhibition of activity [15] [%] | % inhibition of activity [16] [%] | % inhibition of activity [17] [%] | Compound |
| --- | --- | --- | --- | --- | --- | --- | --- | --- | --- | --- | --- | --- | --- | --- | --- | --- | --- |
| 21 | 0 | −14 | 6 | 0 | 2 | 9 | 0 | 18 | 2 | 6 | 4 | 0 | 0 | 6 | 2 | 7 | CCn1c(=O)c(-c2ccc(-c3cncc(C)n3)cc2Cl)cc2cnc(NCCC3CCN(C)CC3)nc21 [Frax1036] |
| 67 | 4 | 91 | 99 | 0 | 0 | 38 | 14 | 86 | 4 | 8 | 18 | 1 | 6 | 12 | 2 | 99 | Cc1nc(Nc2[nH]nc3c2CN(C(=O)N[C@H](CN(C)C)c2ccccc2)C3(C)C)c2sccc2n1 [PF3758309, reference compound] |

| Compound | % inhibition of activity [1] [%] | % inhibition of activity [2] [%] | % inhibition of activity [3] [%] | % inhibition of activity [4] [%] | % inhibition of activity [5] [%] | % inhibition of activity [6] [%] | % inhibition of activity [7] [%] | % inhibition of activity [8] [%] | % inhibition of activity [9] [%] | % inhibition of activity [10] [%] | % inhibition of activity [11] [%] | % inhibition of activity [12] [%] | % inhibition of activity [13] [%] | % inhibition of activity [14] [%] | % inhibition of activity [15] [%] | % inhibition of activity [16] [%] | % inhibition of activity [17] [%] |
| --- | --- | --- | --- | --- | --- | --- | --- | --- | --- | --- | --- | --- | --- | --- | --- | --- | --- |
| CCn1c(=O)c(-c2ccc(-c3noc(C)n3)cc2Cl)cc2cnc(Nc3ccc(C4CCN(C)CC4)cc3)nc21 [Frax716] | 45 | −3 | −2 | 7 | 1 | 98 | 22 | 7 | 89 | 8 | 2 | 8 | −9 | −4 | 3 | 95 | 17 |
